Values quoted from earlier work as cited in patent publication US8367620B2, “Peptidic growth hormone secretagogues analog compounds and preparations thereof” (Centro de Ingenieria Genetica y Biotecnologia, priority 2006, dated 2013).
Where no end group is shown, it is not given here. [ ]: non-standard residue; d: D form. d2Nal = N[C@H](Cc1ccc2ccccc2c1)C(=O)O

Tested on: GH release
Conditions: McDowell 1995; compared to GHRP-6; cited from earlier work

With [dK][d2Nal]AW[dF]EK-NH2 as the substance, how does the “fold increased activity in vitro” value read?
The value was 10 fold.
